Measurements taken from patent US20110104144A1, “METHODS FOR TREATING CUTANEOUS LUPUS USING AMINOISOINDOLINE COMPOUNDS” (CELGENE CORPORATION, priority 2005, published 2011).

How the values were obtained:
Format in all cases: cell-based, Human
ICAM-1 = assay: HUVEC cell surface expression of ICAM-1 by flow cytometry; conditions: TNF-α stimulated, 10 μM, FIG. 5
Description: (§1) A) Materials. Human Umbilical Vein Endothelial Cells (HUVEC) sent from LifeBank, were tested in Experiments A-K with several adhesion molecules. […]

E-Selectin = assay: HUVEC cell surface expression of E-Selectin by flow cytometry; conditions: 10 μM
Description: A) Materials. Human Umbilical Vein Endothelial Cells (HUVEC) sent from LifeBank, were tested in Experiments A-K with several adhesion molecules. The adhesion molecules tested were CD51/CD61FITC (obtained from BD PharMingen, San Diego, Calif.; Catalog No. 555505), ICAM-1 PE also known as CD54 (obtained from BD PharMingen, San Diego, Calif.; Catalog No. 555511), ICAM-2 also known as CD102 (obtained from Research Diagnostics Inc., Concord, Mass.; Catalog No. RDI-CBL539FT), VCAM-1 (obtained from BD PharMingen, San Diego, Calif.; Catalog No. 555647), P-Selectin FITC (obtained from R&D Systems, Inc., Minneapolis, Minn.; Catalog No. BBA34), E-Selectin FITC (obtained from R&D Systems, Inc., Minneapolis, Minn.; Catalog No. BBA21), HLA Class I FITC (obtained from BD PharMingen, San Diego, Calif.; Catalog No. 555553), HLA Class II PE (obtained from BD PharMingen, San Diego, Calif.; Catalog No. 555558), CD44 FITC (obtained from BD PharMingen, San Diego, Calif.; Catalog No. 347943), CD144 (Cadherin VE) (obtained from CHEMICON International, Inc., Temecula, Calif.; Catalog No. MAB1989), IgG2a FITC (obtained from BD PharMingen, San Diego, Calif.; Cat #556652), Ms IgG2a (obtained from CHEMICON International, Inc., Temecula, Calif.; Cat. No. PP102), IgG1 FITC (obtained from BD PharMingen, San Diego, Calif.; Cat. No. 349041) and IgG1 PE (obtained from BD PharMingen, San Diego, Calif.; Cat. No. 349043).
Compound (1) ((+)-2-[1-(3-ethoxy-4-methoxyphenyl)-2-methylsulfonylethyl]-4-acetylaminoisoindoline-1,3-dione) and Compound (2) (4-(amino)-2-(2,6-dioxo(3-piperidyl))-isoindoline-1,3-dione) were obtained according to the preparation procedures disclosed herein. 16,16-Dimethyl-PGE2 (hereinafter PGE2) was obtained from BIOMOL International, L.P. (Plymouth Meeting, Pa.; Catalog No. PG-021). TNF-αwas obtained from Pierce Biotechnology (Rockford, Ill.; Catalog No. RTNFA 10).
B) Methods. HUVEC's were plated on 6-well plates at a concentration of 1×10^5 cells/well in 3 ml EBM® endothelial basal media (obtained from Cambrex Corporation, East Rutherford, N.J.; Catalog No. CC-3121) and singlequots (obtained from Cambrex Corporation, East Rutherford, N.J.; Catalog No. CC-4133). The cells were incubated overnight in a 37° C. and 5% CO2 humidified incubator to allow cells to attach. The old media was removed in next day and replaced with 3 ml fresh EBM® endothelial basal media. Then, samples of 3 μl of 10 mM of Compound (1), Compound (2), PGE2 and a mixture of Compound (1) and PGE2 were added separately to each well of the plates in duplicate to give a final concentration of 10 μM. An unstimulated DMSO control and a TNF-α-stimulated control were also added in duplicate. The plates were incubated in a 37° C. and 5% CO2 humidified incubator for 1 hr. […] The plates were incubated overnight in a 37° C. and 5% CO2 humidified incubator. The cells were also tested without TNF-α. The media was removed in the next day and each well was washed with 3 ml of phosphate buffered saline (PBS). Then, 3 ml of PBS containing 1 mM of EDTA (ethylenediaminetetraacetate) was added to each well to allow the cells to detach. Once the cells detached, they were gently scraped and placed in 4.5 ml Falcon tubes. The tubes were then centrifuged at 1200 RPM for 8 minutes at 4° C. The supernatant was carefully removed. Next, 50 μl of PBS-FACS buffer (5% fetal bovine serum (FBS), 0.02% sodium azide in PBS) and 20 μl of antibodies were added to all tubes as follows:
After the antibodies were added, the tubes were incubated on ice for 30 minutes and covered with foil. Then, the tubes were centrifuged at 1200 RPM for 8 minutes at 4° C. The supernatant was carefully removed. The cells were re-suspended in 2 ml of PBS-FACS buffer and centrifuged again as above. The supernatant was carefully removed again and the cells were re-suspended in 500 μl of PBS-FACS buffer. The tubes were then analyzed using a flow cytometer. […]

VCAM = assay: HUVEC cell surface expression of VCAM by flow cytometry; conditions: TNF-α stimulated, 10 μM, FIG. 5
Description: as §1

With `CCOc1cc(C(CS(C)(=O)=O)N2C(=O)c3cccc(NC(C)=O)c3C2=O)ccc1OC` (single isomer, unassigned; (+)) [Compound (1), (+)-2-[1-(3-ethoxy-4-methoxyphenyl)-2-methylsulfonylethyl]-4-acetylaminoisoindoline-1,3-dione] the “increase of ICAM-1 cell surface expression” value (ICAM-1) was “approximately 35%”, the “TNF-α-stimulated cell surface expression of E-Selectin” value (E-Selectin; TNF-α (1 ng/ml) stimulated, FIG. 3) was “unaffected” and the “E-Selectin cell surface expression” value (E-Selectin; unstimulated, FIG. 2) was “inhibited”. For the same molecule, the “decrease of VCAM expression” value (VCAM) was 30%.
